Laboratory results taken from patent US5118791A, “Biologically active polypeptides based on transforming growth factor-β” (Genentech, Inc., priority 1991, dated 1992).
Where no end group is shown, it is not given here.

Legend:
Assay type in all cases: cell-based
[1] = system: Mu-1-Lv (ATCC CCL 64) mink lung epithelial-like cell; test: Inhibition of proliferation of cultured mink lung cells (3H-thymidine incorporation); settings: CCL-64 mink lung cells, 24 hours, FIG. 1
Procedure: The cell line Mu-1-Lv (ATCC CCL 64, Rockville, MD), a mink lung epithelial-like cell, was used to detect TGF-β activity. Mul-1-Lv cells maintained by weekly passage in vitro in CMEM consisting of Eagle's minimum essential medium supplemented with 0.1 mM nonessential amino acids, 2 mM L-glutamine, 1 MM sodium pyruvate (Gibco, Grand Island, NY), and 10% heat-inactivated fetal bovine serum (FBC; HyClone Laboratoris, Logan, UT) were placed into 96-well flat-bottom microtiter plates (10,000/well; Falcon 3075) at a final volume of 200 μl/well. The plates were incubated at 37° C.+5% CO2 for 24 hours. During the last 4 hours of culture, 1 μCi of {3H} thymidine (20 μl/well, 5.0 Ci/mmol; Amersham Corp.) was added. After labeling, 100 μl/well of 10 x Trypsin-EDTA was added per well and the plates were incubated for an additional 15 min. at 37° C. Cells were harvested onto glass filters and counted in a liquid scintillation counter (LS 6800, Beckman, Fullerton, CA). Results (pg/ml of TGF-β) were calculated based on percent inhibition of thymidine incorporation compared with a rHuTGF-β1 laboratory standard.

human lymphocytes [2] = test: Inhibition of human lymphocyte proliferation in response to PHA-P; settings: PHA-P 1 μg/ml, three days, dose-dependent, FIG. 6
human lymphocytes [3] = test: Inhibition of human lymphocyte proliferation in response to PMA; settings: PMA 40 ng/ml, three days, dose-dependent, FIG. 5
human lymphocytes [4] = test: Inhibition of human lymphocyte proliferation in response to tetanus toxoid; settings: tetanus toxoid 2 LF units/ml, six days, dose-dependent, FIG. 4
Procedure: The medium employed was complete RPMI-1640, i.e., RPMI-1640 (Gibco) supplemented with 10% human pooled AB serum (Hazelton Biologics Inc., Lenexa, KS), 100 u/ml penicillin/100 μg/ml streptomycin, 2 mM L-glutamine (Gibco), 1 mM sodium pyruvate (Gibco), 1% MEM non-essential amino acids (Gibco, 100x), 25 mM HEPES (Gibco), and 1% Nutridoma (Boehringer Manheim).
Heparinized venous blood (10 u/ml; bovine lung, Upjohn) was mixed with an equal volume of isotonic saline. Approximately 30 ml of the diluted blood was layered over 15 ml of lymphocyte separation medium (LSM, Organon Technika) in […] conical polypropylene centrifuge tubes (Falcon Plastics). The tubes were centrifuged for 40 min. at 400× g at 22° C. […]
To each of sextuplicate wells of a 96-well flat-bottom microtiter plate (Falcon Plastics) was added 100 μl of the cell suspension. […] The filter discs were dried and suspended in 2 ml of liquid scintillation cocktail (Econofluor, New England Nuclear) in mini-scintillation vials and incorporated radioactivity was determined by liquid scintillation spectrophotometry. Data were expressed as mean counts per min. of the quadruplicate samples, where the cpm of the media control was substrated from the cpm of the stimulated sample.

Substance | cpm incorporated (activity) as a function of the reciprocal of dilution [1] | inhibition of proliferation of human lymphocytes in response to PHA-P (human lymphocytes [2]) | inhibition of proliferation of human lymphocytes in response to PMA (human lymphocytes [3]) | inhibition of proliferation of human lymphocytes in response to tetanus toxoid (human lymphocytes [4])
CVRQLYIDFRKDLGWK [free polypeptide] | comparable, i.e., low at the low dilution level and high at the high dilution levels | – | – | –
TGF-β1: mature, full-length transforming growth factor-β1 | – | also exhibits this dose-dependent effect | also exhibits this dose-dependent effect | also exhibits this dose-dependent effect
